Measured values: US20210395226A1, “SUBSTITUTED ARYL COMPOUND AND PREPARATION METHOD THEREFOR AND USE THEREOF” (SICHUAN KELUN-BIOTECH BIOPHARMACEUTICAL CO., LTD., priority 2018, published 2021)

Tests used:
[1] = biological target: T1, Adenosine A1 receptor (human) membrane (Homo sapiens, UniProt P30542); experiment: Determination of competitive inhibition constant (Ki) for adenosine A1 receptor, [3H]-DPCPX radioligand; type: binding; details: 1.0 nM [3H]-DPCPX
T1 construct: purchased PerkinElmer ES-010-M400UA
T1 sequence (P30542 1-326): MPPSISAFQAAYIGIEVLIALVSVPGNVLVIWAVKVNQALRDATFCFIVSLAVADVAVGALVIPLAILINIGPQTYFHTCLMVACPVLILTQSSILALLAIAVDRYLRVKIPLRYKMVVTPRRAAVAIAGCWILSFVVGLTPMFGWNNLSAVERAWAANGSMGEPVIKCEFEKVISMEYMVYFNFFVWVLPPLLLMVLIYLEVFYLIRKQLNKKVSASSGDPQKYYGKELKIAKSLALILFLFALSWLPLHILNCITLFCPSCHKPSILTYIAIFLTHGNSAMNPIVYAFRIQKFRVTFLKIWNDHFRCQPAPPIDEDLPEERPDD
Protocol: (§1) Test Example 1: Determination of Competitive Inhibition Constant (Ki) for Adenosine A1 and A2a Receptors
[^3H]-DPCPX (PerkinElmer, NET974250UC),
Adenosine A1 receptor (human) membrane (PerkinElmer, ES-010-M400UA),
assay buffer for A1 (25 mM HEPES, 5 mM MgCl2, 1 mM CaCl2, 100 mM NaCl, pH7.4), used to dilute adenosine A1 receptor (human) membrane and [^3H]-DPCPX;
wash buffer for A1 (25 mM HEPES, 5 mM MgCl2, 1 mM CaCl2, 100 mM NaCl, pH7.4);
(§2) Adenosine A1 receptor membrane was diluted to 0.025 μg/μl with assay buffer for A1, and Adenosine A2a receptor membrane was diluted to 0.05 μg/μl with assay buffer for A2a, so as to obtain Adenosine A1 receptor membrane dilution and Adenosine A2a receptor membrane dilution.
(§3) The compound to be tested and CGS-15943 were diluted with DMSO, and 1 W of the compound to be tested, high value control (0.5% DMSO), low value control (1000 nM CGS-15943) were added to a 96-well plate, and 100 W of Adenosine A1 receptor membrane dilution (containing 2.5 μg of membrane) was added to each well of the 96-well plate to obtain A1 detection plate; following the same steps, 100 W of Adenosine A2a receptor membrane dilution (containing 5.0 μg membrane) was added to each well of the 96-well plate to obtain A2a detection plate.
(§4) To the A1 detection plate, 100 μl of radioisotope-labeled ligand [^3H]-DPCPX (diluted with assay buffer for A1, working concentration of which was 1.0 nM) was added; and to the A2a detection plate, 100 μl of radioisotope-labeled ligand [^3H]-CGS-21680 (diluted with assay buffer for A2a, working concentration of which was 6.0 nM) was added. The A1 and A2a detection plates were sealed with tape, and incubated at room temperature for 1 h and 2 h, respectively.
(§5) Unifilter-96 GF/C filter plates were prepared, 50 μl of 0.3% PEI was added to each well of the Unifilter-96 GF/C filter plates, and the resulting filter plates were incubated at room temperature for not less than 0.5 h.
(§6) After the incubation was completed, the reaction solution was transferred from the A1 detection plate and the A2a detection plate to two Unifilter-96 GF/C filter plates, and washed with pre-cooled wash buffer for A1 and wash buffer for A2a, and then the filter plates were dried, sealed at bottom, then 50 W of Microscint 20 fluid scintillation cocktail was added, and then the filter plates were sealed at top, and counted by MicroBeta2 Reader.
(§7) Inhibition rate %=100−(signal value of test well−signal average value of low value control)/(signal average value of high value control−signal average value of low value control)*100.
(§8) EXCEL XLfit was used to fit IC50.
(§9) The calculation formula for competitive inhibition constant (Ki) was: Ki=IC50/(1+concentration of isotope-labeled ligand/Kd), wherein Kd was the dissociation constant of the isotope-labeled ligand.

[2] = biological target: T2, Adenosine A2a receptor (human) membrane (Homo sapiens, UniProt P29274); experiment: Determination of competitive inhibition constant (Ki) for adenosine A2a receptor, [3H]-CGS-21680 radioligand; type: binding; details: for Ki: human A2a receptor membrane, 6.0 nM [3H]-CGS-21680, read-out: Ki(A2a); for Ki(A1)/Ki(A2a): selectivity ratio A1 over A2a
T2 construct: purchased PerkinElmer RBHA2AM400UA
Protocol: as §1
Adenosine A2a receptor (human) membrane (PerkinElmer, RBHA2AM400UA),
assay buffer for A2a (50 mM Tris-HCl, 10 mM MgCl2, 1 mM EDTA, pH7.4), used to dilute adenosine A2a receptor (human) membrane (human origin) and [^3H]-CGS-21680; and
wash buffer for A2a (50 mM Tris-HCl, 154 mM NaCl, pH7.4).
as §2, §3, §4, §5, §6, §7, §8, §9

ADORA2a/CHOK1 cells = biological target: T3, ADORA2a/CHOK1 cells (Homo sapiens, UniProt P29274); experiment: Inhibitory activity for ADORA2a/CHOK1 cells (cAMP detection, adenosine as agonist); type: cell-based; details: for inhibition at 0.1 µM: CHO-K1, 100 nM compound, read-out: Inhibition rate at 100 nM; for inhibition at 1 µM: CHO-K1, 1000 nM compound, read-out: Inhibition rate at 1000 nM
T3 construct: host or cells: CHO-K1
Protocol: Test Example 2: Study on Inhibitory Activity for ADORA2a/CHOK1 Cells
ADORA2a/CHOK1 cells (Cobai, CBP71017).
FBS was added to Ham's F-12 medium to a concentration of 10% (v/v), Zeocin was added to a final concentration of 200 μg/mL, and Hygromycin B was added to a final concentration of 100 μg/mL, and the resulting mixture was stored at 4° C. for later use.
A certain amount of adenosine was precisely weighed and placed into a 1.5 mL EP tube, then a certain volume of cell culture medium was added, the resulting mixture was incubated at 37° C. for dissolution, thereby a 10 mM stock solution was prepared. The stock solution was diluted with cell culture medium at 1:1000 to get 10 μM adenosine solution.
The compound to be tested was dissolved in DMSO to form a 10 mM stock solution, and the stock solution was stored in a refrigerator at 4° C. for later use. The stock solution was diluted with the 10 μM of adenosine solution to 2000 nM or 200 nM for later test.
(1) CHO-K1 cells stably expressing ADORA2A receptor were cultured in a 37° C., 5% CO2 cell incubator. When the cell confluence reached about 80%, the cells were digested by trypsin, dispersed and counted; (2) the cell concentration was adjusted to 6×10^5 cells/mL according to the counting results; (3) the cells was inoculated into a white 384-well cell culture plate at 5 μL per well (about 3000 cells/well).
All groups were provided with multiple wells, the adenosine-free cell culture medium was added to the wells of the Blank group (5 μL/well); 10 μM adenosine solution was added to the wells of the Agonist group (5 μL/well); the diluted compound was added to the wells of the test compound group (5 μL/well). After the addition of the compound was completed, the 384-well plate was centrifuged at 2500 rpm for 30 seconds to fully mix the compound and the medium, then placed in a 25° C. incubator and incubated for 30 min.
A certain volume of cAMP-d2 was taken, and diluted by adding Lysis & Detection Buffer at the ratio of 1:5 to prepare Solution A.
A certain volume of cAMP-Cryptate was taken, and diluted by adding Lysis & Detection Buffer at the ratio of 1:5 to prepare Solution B.
(2) After 30 min of incubation in step 2 was completed, addition of detection solution was carried out. The 384-well plate was taken out, 5 μL of Solution A was added to each well, and then 5 μL of Solution B was added to each well, then the 384-well plate was covered with sealing membrane, centrifuged at 2500 rpm for 30 s (to fully mix the detection solution and medium), and incubated in a thermostat at 25° C. for 1 h.
After the incubation, the 384-well plate was taken out, and detected by PHERA Star FS to read data, detection wavelength: 620 nm/665 nm.
inhibition rate %=(1−(RCompound−RBlank)/(RAgonist−RBlank))*100%
wherein, RCompound represented the R Value of the test compound group, RAgonist represented the R value of the Agonist group, and RBlank represented the R value of the Blank group.

T2 sequence (P29274 whole entry): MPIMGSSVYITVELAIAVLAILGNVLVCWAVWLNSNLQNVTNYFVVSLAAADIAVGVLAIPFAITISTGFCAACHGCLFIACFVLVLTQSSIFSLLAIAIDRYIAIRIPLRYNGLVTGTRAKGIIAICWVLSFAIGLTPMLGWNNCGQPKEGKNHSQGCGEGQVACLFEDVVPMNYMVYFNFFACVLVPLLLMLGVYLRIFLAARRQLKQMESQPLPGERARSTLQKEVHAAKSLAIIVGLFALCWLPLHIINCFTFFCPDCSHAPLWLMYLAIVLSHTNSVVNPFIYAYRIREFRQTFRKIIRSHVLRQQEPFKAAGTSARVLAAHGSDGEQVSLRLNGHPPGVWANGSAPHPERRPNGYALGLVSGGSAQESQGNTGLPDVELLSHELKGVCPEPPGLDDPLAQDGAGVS
T3 sequence (P29274 whole entry): as above

Cc1ncnc2ccc(-c3c(C#N)cc(NC(=O)N4CCOCC4)nc3-c3ccc(F)cc3)cc12 [Compound 43, N-(4-cyano-6-(4-fluorophenyl)-5-(4-methylquinazolin-6-yl)pyridin-2-yl) morpholine-4-carboxamide]
Ki [1]: 134 nM | Ki [2]: 1.36 nM | Ki(A1)/Ki(A2a) [2]: 98.3 | inhibition at 0.1 µM (ADORA2a/CHOK1 cells): 59.1% | inhibition at 1 µM (ADORA2a/CHOK1 cells): 100%

Cc1ncnc2ccc(-c3c(-c4ccc(F)cc4)nc(NC(=O)N4CCOCC4)nc3C3CC3)cc12 [Compound 44, N-(4-cyclopropyl-6-(4-fluorophenyl)-5-(4-methylquinazolin-6-yl)pyrimidin-2-yl)morpholine-4-carboxamide]
Ki [1]: 931 nM | Ki [2]: 14.5 nM | Ki(A1)/Ki(A2a) [2]: 64.2 | inhibition at 0.1 µM (ADORA2a/CHOK1 cells): 64.8% | inhibition at 1 µM (ADORA2a/CHOK1 cells): 104%
